According to PMC10447463, “Data-mining unveils structure–property–activity correlation of viral infectivity enhancing self-assembling peptides” (Nature Communications, 2023):
Where two headings read alike, the source gives them in different places.

How the values were obtained:
[1] = Zeta-potential measurement; type: physicochemical
In short: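 Peptides from a 10 mg/mL DMSO stock were brought to 1 mg/mL in PBS (pH 7.4) and aged 1 d at RT. Just before reading, they were diluted into 1 mM aqueous KCl, and zeta potential was calculated from electrophoretic mobility with the Smoluchowski formula.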

[2] = Turbidity, derived count rate of scattered light; type: physicochemical; details: for Count Rate: derived count rate of scattered light (turbidity); for Log10 Count Rate: turbidity, derived count rate of scattered light, data of Figure 2D
[3] = Turbidity, derived count rate of scattered light; type: physicochemical; details: for Count Rate / kcps: derived count rate of scattered light at 633 nm, 173°, from zeta-potential measurement, 0.1 mg/mL in 1 mM KCl after 1 d at 1 mg/mL in PBS, turbidity / microscopic aggregation, mean of triplicate
In short: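 Samples: 1 mg/mL in PBS pH 7.4 (from DMSO), 1 d at RT, then diluted in 1 mM KCl immediately before measurement. Triplicates, two independent runs averaged.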

[4] = β-sheet content by ATR-FT-IR; type: physicochemical; details: Fig. S7 panel A; β-sheet content by ATR-FT-IR
Procedure: For ATR FT–IR spectroscopy measurements, 200 µL of the respective 1 mg/mL PNF solution was lyophilized and the resulting powder used for measurement. All spectra were recorded on a Bruker Tensor 27 spectrometer with a diamond crystal as ATR element (PIKE MiracleTM, spectral resolution 2 cm^-1). Every sample was measured with 64 scans. Data were analyzed with OriginLab software and calculation of β–sheet content was conducted according to a previous report. TEM. For TEM measurements 5 µL of PNF fibrils (1 mg/mL) were placed on copper grids coated with carbon and formvar layer (300 mesh, Plano GmbH). After 10 min incubation time, the grids were staining with 4% uranyl acetate solution for 2.5 min and washed with water. Measurements were performed on a Jeol 1400 electron microscope with 120 kV acceleration voltage. CR Assay. For the determination of the amount of peptide monomer converting into nanostructures the amine reactive dye fluorescamine was used analogous to a previous reported protocol. Briefly, 100 µL of the preformed PNF solution was centrifuged in a Vivaspin 500 tube (3 kDa MWCO) to separate fibers from free peptide monomer (16200 x g, 4 °C, 45 min). The filtrate and 100 μL of the non-filtered PNF sample were lyophilized and dissolved in 30 μL DMSO. 10 μL of the filtrate and non-filtered DMSO samples were submitted in a black UV Star® 384 microliter well–plates (Greiner bio–one) and 3 μL of the fluorescamine solution (10 mg/mL, DMSO) was added to measure the fluorescence enhancement. After 20 min of incubation at RT, fluorescence was recorded on an Infinite® M1000 PRO microplate reader (Tecan) at λem = 470 nm upon excitation at λex = 365 nm with 10 nm bandwidths and multiple reads per well (3×3). Measurements were repeated in triplicates and averaged with standard deviation. All values were calculated as n-fold fluorescence enhancement (DMSO only as a reference was set to 1). The conversion rate CR was defined according to the equation Eq. (3).3 CR=100−100×fluorescenceintensityfiltrate/fluorescenceintensityoriginal[%]

[5] = system: HIV-1 infection of TZM-bl cells; assay: HIV-1 infectivity enhancement assay, β-galactosidase luminescence; type: cell-based; details: for Rel-EFC / Log10 Infection Rel EFC: 1.3 µM peptide; for Rel-EFC: infection relative to EF-C (QCKIKQIINMWQ = 1); for Log10 Infection Rel EFC: log10 of infection relative to EF-C; for Log Infectivity: Log10 infection relative to EF-C, asymmetric std dev errors; for Log10 Infection Rel EF-C: HIV-1 infection of TZM-bl cells; for Log10 of Rel to EFC (Feb2021): Log10 of infection relative to EF-C, all peptides of FigS16; for Abs. Infection at 0.26 µM / Infect 1 0.26 µM / Infect 2 0.26 µM / Infect 3 0.26 µM: peptide 0.26 µM; for Abs. Infection at 0.26 µM / Abs. Infection at 1.3 µM: mean of n = 3, Figure 4A; for Infect 1 0.26 µM / Infect 1 .3 µM: replicate 1, absolute infection signal; for Infect 1 0.26 µM / Infect 2 0.26 µM / Infect 3 0.26 µM / Infect 1 .3 µM / Infect 2 1.3µM / Infect 3 1.3 µM: Figure 4A; for Infect 2 0.26 µM / Infect 2 1.3µM: replicate 2, absolute infection signal; for Infect 3 0.26 µM / Infect 3 1.3 µM: replicate 3, absolute infection signal; for Abs. Infection at 1.3 µM / Infect 1 .3 µM / Infect 2 1.3µM / Infect 3 1.3 µM: peptide 1.3 µM
[6] = zeta potential of peptide assemblies
[7] = zeta-potential of peptide, source data of Figure 2C
[8] = zeta-potential of the peptide assemblies, mean, Figure 3A source data
[9] = Log10 of derived count rate of scattered light (turbidity)
[10] = log10 of derived count rate of scattered light (turbidity)
[11] = turbidity, Log10 of derived count rate of scattered light, Figure 3A source data
[12] = Fig. S7 panel A (plotted against β-sheet content), TZM-bl cells
[13] = Log10 of infection rate relative to EF-C, Figure 3A source data
[14] = infection rate relative to EF-C, log10, data of Figure 2D
[15] = infection rate relative to EF-C, log10, source data of Figure 2C

Row | Substance | Zeta-Pot. [1, 6] | Zeta-Potential / mV [1, 7] [mV] | Zeta-Potential / mV [1, 8] [mV] | Count Rate [2] | Log10 Count Rate [2] | Log10 Count Rate [3, 9] | Count Rate / kcps [3] [kcps] | Log10 Count Rate [3, 10] | Log10 Count Rate [3, 11] | b -sheet / % [4] [%] | Rel-EFC [5] | Log10 Infection Rel EFC [5] | Log Infectivity [5, 12] | Log10 Infection Rel EF-C [5, 13] | Log10 Infection Rel EF-C [5, 14] | Log10 Infection Rel EF-C [5, 15] | Log10 of Rel to EFC (Feb2021) [5] | Abs. Infection at 0.26 µM [5] | Infect 1 0.26 µM [5] | Infect 2 0.26 µM [5] | further results
1 | KFKFQFF | 6.903 | 6.903 | 6.9 | 37.77 | 1.577 | 1.577 | 38 | 1.577 | 1.577 | 48.35 | 0,12 | -0,91 | -0.9142 | -0.91 | -0.9142 | -0.9142 | -0.91 | 476.7 | 343.33 | 603.33 | Infect 3 0.26 µM [5]: 483.33; Abs. Infection at 1.3 µM [5]: 2850; Infect 1 .3 µM [5]: 3623.33; Infect 2 1.3µM [5]: 2253.33; Infect 3 1.3 µM [5]: 2673.33
2 | CSISIQI | -25.93 | -26.07 | -25.93 | 10241.1 | 4.01 | 4.01 | 10241 | 4.01 | 4.01 | 58.57 | 0,06 | -1,25 | -1.252 | -1.25 | -1.252 | -1.252 | – | 1390 | 1340 | 1160 | Log10 Count Rate ([3]; logarithm of count rate in kcps): 4.01; Log Infectivity ([5]; Fig. S7 panel B (plotted against CR), rounded to two decimals, TZM-bl cells): -1.25; Infect 3 0.26 µM [5]: 1670; Abs. Infection at 1.3 µM [5]: 3087; Infect 1 .3 µM [5]: 3310; Infect 2 1.3µM [5]: 2600; Infect 3 1.3 µM [5]: 3350
3 | KVKVQVVV | 0.147 | 1.657 | 0.15 | 163.1 | 2.213 | 2.213 | 163 | 2.213 | 2.213 | 45.8125 | 0,04 | -1,46 | -1.455 | -1.46 | -1.455 | -1.455 | – | – | – | – | –
4 | KIKIQIMWNQ | – | 4.42 | 2.96 | 1887 | 3.2757 | 3.2757 | 1887 | 3.2757 | 3.2757 | 41.4 | 0,56 | -0,25 | -0.2495 | -0.25 | -0.2495 | -0.2495 | -0.25 | – | – | – | Zeta-Pot. [1]: 2.96; Abs. Inf. ([5]; absolute HIV-1 infection signal, TZM-bl cells, β-galactosidase luminescence): 9147
